This is an account of results in patent US20100184769A1, “PDE INHIBITORS FOR THE TREATMENT OF HEARING IMPAIRMENT” (BAYER SCHERING PHARMA AKTIENGESELLSCHAFT, priority 2007, published 2010).

For this assay, the system named is acustic trauma and threshold levels of rats. Briefly: Acoustic trauma (AT) in rats, hearing thresholds by auditory brainstem responses (ABR). In kind it is in vivo, female Sprague Dawley Rats. Conditions: 10 mg/kg p.o. twice daily. As for the experimental part:
All animal experiments were performed due to the “German Law for the Protection of Laboratory animals” and were conducted due to the approved guidelines for Animal Health and Welfare. Experiments were performed with female Sprague Dawley Rats with a body weight between 300-400 g. For induction of acoustic trauma (AT) animals were kept under anesthezia (Ketamine, Xylazin, Rompun i.p. injection) and exposed to band noise or pure tones using a calibrated loudspeaker inside a reverberating chamber. The sound consists of a continuous 10 kHz pure-tone presented at 115 dB SPL. All acoustic stimuli were calibrated at the head level of the animal. Rats were treated with either Vardenafil [10 mg/kg/ p.o. dissolved in Ethanol/Solutol/Water (10/40/50) with an application volume of 5 ml/kg] or Placebo [Ethanol/Solutol/Water (10/40/50) with an application volume of 5 ml/kg] twice daily. The first treatment with Vardenafil or Placebo was i.e. 1 h prior to AT. The development and progression/remission of hearing impairment was detected by measuring the hearing thresholds by recordings of auditory brainstem responses (ABR). The threshold was determined by the lowest sound pressure that produced ARBs distinct from noise level. Threshold level analysis was performed prior to the acustic trauma (AT) (Measurement A in table 1), 3-5 hours post AT (Measurement B in table 1), once daily, from day 1 to day 7 post AT (Measurement C to I in table 1) and finally 3 weeks post AT (Measurement J in table 1).

As to `CCCc1nc(C)c2c(=O)[nH]c(-c3cc(S(=O)(=O)N4CCN(CC)CC4)ccc3OCC)nn12` [Vardenafil, 2-(2-Ethoxy-5-(4-ethylpiperazin-1-yl-1-sulfonyl)phenyl)-5-methyl-7-propyl-3H-imidazo (5,1-f) (1,2,4)triazin-4-one], for the setting “3-5 hours post AT, first treatment 1 h prior to AT”, the “Hearing Threshold, Measurement B” value is recorded as 38.6 dB SPL. The “Hearing Threshold, Measurement J” value (3 weeks post AT) stood at 8.1 dB SPL. The “Hearing Threshold, Measurement C” value (day 1 post AT) is 28.3 dB SPL. Further, under “day 2 post AT”, the “Hearing Threshold, Measurement D” value was determined as 19.5 dB SPL. Besides, the “Hearing Threshold, Measurement E” value (day 3 post AT) was determined as 16.5 dB SPL. Further, the “Hearing Threshold, Measurement F” value (day 4 post AT) stood at 14.3 dB SPL. For the setting “day 5 post AT”, the “Hearing Threshold, Measurement G” value stood at 12.4 dB SPL. Besides, the “Hearing Threshold, Measurement H” value (day 6 post AT) was 11.2 dB SPL. Also, the “Hearing Threshold, Measurement I” value (day 7 post AT) is 10.9 dB SPL. In addition, under “prior to acustic trauma (AT)”, the “Hearing Threshold, Measurement A” value came to 5.9 dB SPL.
